Data published in publication PMC10892429, “Design, Synthesis, and Antitumor Evaluation of an Opioid Growth Factor Bioconjugate Targeting Pancreatic Ductal Adenocarcinoma” (Pharmaceutics, 2024).

Assays:
MIA PaCa-2 cells = experiment: Cell senescence (flow cytometry and optical microscopy), MIA PaCa-2; format: cell-based, human; conditions: MIA PaCa-2, 72 h; OGF-Gem increasing concentrations (3.125–100 nM), OGF 100 nM, Gem 100 nM
Protocol: In a 6-well plate, 1.7 × 10^5 MIA PaCa-2 and AsPC-1 cells were seeded per well. […] After incubation, the floating and attached cells were collected using a 1% BSA solution and fixed with 2% paraformaldehyde in PBS for 10 min at room temperature. The cells were washed with 1% BSA solution and incubated with the Senescence Detection Kit for 1.5 h at 37 °C without CO2, protected from light. Next, cell senescence was measured via flow cytometry (λex 490 nm; λem 514 nm). Ten thousand events were measured per sample. The data were expressed as a percentage of untreated cells (set to 100%), which were the control.
In a 12-well plate, 10^5 PaCa-2 and AsPC-1 cells were seeded per well. […] The medium was removed from each well and washed with a PBS (pH 7.2) buffer. The cells were incubated with fixative solution (0.2% glutaraldehyde, 2% paraformaldehyde, and a PBS buffer) for 5 min at room temperature. The cells were washed with a PBS (pH 6.0) buffer. Next, the cells were incubated with a staining solution (1 mg/mL X-Gal/DMF, 5 mM K3Fe(CN)6, 5 mM K4Fe(CN)6, 2 mM MgCl2, 150 mM NaCl, and 40 mM citric acid/buffer Na2HPO4) for 16 h at 37 °C, without CO2. After incubation, the cells were observed using an optical microscope (magnification 20x).

[1] = test system: HDFa human primary dermal fibroblasts; experiment: MTT viability assay, HDFa
Protocol: (§1) The MIA PaCa-2 and AsPC-1 pancreatic cancer cell lines were obtained from the American Type Culture Collection (ATCC; Manassas, VA, USA). MIA PaCa-2, a human pancreatic cancer cell line, was isolated from the pancreatic duct (ATCC, CRL-1420) and cultured in Dulbecco’s Modified Eagle’s Medium (DMEM), supplemented with 10% FBS, 2.5% horse serum, and 1% penicillin/streptomycin (P/S). AsPC-1, a human metastatic pancreatic tumor cell line (ATCC, CRL-1682), was cultured in Roswell Park Memorial Institute 1640 Medium, supplemented with 10% FBS and 1% P/S. HDFa, a human primary dermal fibroblast was obtained from the American Type Culture Collection (ATCC; Manassas, VA, USA). The HDFa was cultured in DMEM and supplemented with 10% FBS and 1% P/S. HEK-293 immortalized human embryonic kidney was obtained courtesy of Professor Ewa Augustin from the Gdansk University of Technology. The HEK-293 was cultured in DMEM, and supplemented with 10% FBS and 1% P/S. Cells were cultured at 37 °C in a humidified atmosphere with 5% CO2. The cells were maintained in a 75 cm^2 tissue culture flask. The medium was replaced every two days. […]
(§2) In a 96-well plate, 7 × 10^3 MIA PaCa-2 and AsPC-1 cells and 3 × 10^3 HEK-293 and 10^4 HDFa cells were seeded per well. […] Cell viability was assessed using the MTT assay. […]

[2] = test system: AsPC-1-induced platelet aggregation (washed platelets); experiment: Tumor cell-induced platelet aggregation (TCIPA), light aggregometry and TEM; format: cell-based, human; conditions: 50, 100 μM (any tested concentration), 10 min pre-incubation with washed platelets, AsPC-1 2 × 10^5/mL
Protocol: The MIA PaCa-2 and AsPC-1 cell cultures were washed and detached with 7 mM EDTA buffer. Next, the buffer was aspirated, and cells were centrifuged for 5 min at 1200 rpm and resuspended in Tyrod buffer. For TCIPA determination, MIA PaCa-2 cells were prepared at different concentrations: 10^5, 2 × 10^5, 5 × 10^5, 10^6 cells/mL; and AsPC-1 cells at concentrations of 5 × 10^4, 10^5, 2 × 10^5 cells/mL [31, 32, 33].
Samples collected after the TCIPA determination using the light aggregometer were fixed in 2.5% glutaraldehyde. The samples were then stained with 1% OsO4, gradually dehydrated with ethanol solution (30–100%), and embedded in EPON solution. Slides were prepared using a Leica UC7 ultramicrotome and stained with Uranyless and Reynolds lead citrate. Preparations were analyzed using a Tecnai G2 Spirit BioTWIN TEM [31].

washed platelets [3] = experiment: Platelet aggregation by compounds alone, light aggregometry; conditions: tested concentration
[4] = test system: HEK-293 human embryonic kidney cells; experiment: MTT viability assay, HEK-293
Protocol: as §1, §2

[5] = test system: AsPC-1 metastatic pancreatic cancer cells; experiment: MTT cytotoxicity assay, AsPC-1; format: cell-based, human; conditions: AsPC-1, 72 h
Protocol: The medium was replaced every two days.
Cell viability was assessed using the MTT assay.

washed platelets [6] = experiment: LDH release assay on washed platelets; format: cell-based, human; conditions: 50 and 100 μM, 15 min at 37 °C, fluorescence
Protocol: The isolated WP (prepared as described in Section 2.12) were transferred to a 96-well plate for fluorescence measurements. Next, the OGF-Gm conjugate and the OGF at 50 and 100 μM concentrations were added. The control sample consisted of platelets suspended in Tyrod buffer. The positive control was WP treated with lysis buffer (0.1% Triton X-100) and the lysis buffered-WPs were set to 100%. Platelets with tested compounds were incubated for 15 min at 37 °C. Then, 100 μL of the LDH assay was added to each well and incubated for another 10 min, protected from light. The reaction was stopped with a Stop Solution buffer. Fluorescence intensity was measured with a plate reader (λex 560 nm; λem 590 nm). The results were expressed as the percentage of the total LDH release.

[7] = Stability in DMEM supplemented with 10% FBS; format: in vitro ADME; conditions: DMEM + 10% FBS
Protocol: The OGF-Gem conjugate and OGF alone were incubated in a medium (DMEM) supplemented with 10% FBS at a temperature of 37 °C. The initial concentrations of the peptide and conjugate solutions were both 0.5 mM. Samples of 60 μL were taken immediately after the start of incubation, 30 min, 90 min, 180 min, and 23 h and mixed with 60 μL of acetonitrile to separate the proteins. The formed precipitate was removed via centrifugation for 15 min at 13,000 rpm. The supernatant was analyzed via RP-HPLC [(Shimadzu Prominence, Duisburg, Germany) linear gradient 10–90% phase B, 20 min., column Kinetex 5 μm XB-C18 100Å 150 × 4.6 mm] and MALDI-MS (Autoflex maX MALDI-TOF spectrometer, Bruker Daltonics, Bremen, Germany) using a 2,5-dihydroxybenzoic acid matrix (DHB). A stability analysis was performed according to a protocol previously described by us.

[8] = all tested concentrations (1.56–100 nM), 3 days

Row | SMILES | induction of cell senescence (MIA PaCa-2 cells) | HDFa cell viability ([1]; 100 nM, 72 h, % of control) [%] | inhibition of TCIPA [2] | effect on platelet aggregation (compound alone) (washed platelets [3]) | reduction in HEK-293 cell viability ([4]; 100 nM, 72 h, compared to the 100 nM OGF-Gem derivative) [%] | cytotoxicity to HDFa [1, 8] | cytotoxic effect compared to the commonly used chemotherapeutic agent (Gem) [5] | LDH release from platelets (washed platelets [6]) | presence of intact compound after 23 h (MS) ([7]; 37 °C, 0.5 mM, 23 h, MALDI-MS) | presence of intact compound after 23 h (HPLC) ([7]; 37 °C, 0.5 mM, 23 h, RP-HPLC) | presence of intact compound after 3 days (HPLC) ([7]; 3 days at room temperature, RP-HPLC) | release of parent drug during incubation ([7]; HPLC and MS) | remaining at 23 h, 0.5 mM ([7]; DMEM supplemented with 10% FBS, 37 °C, 0.5 mM, 23 h, RP-HPLC, read-out: HPLC peak area of intact conjugate after 23 h relative to area just after start of incubation) [%] | cytotoxicity to HEK-293 [4, 8] | concentration after 23 h compared to the initial state ([7]; 37 °C, 0.5 mM, 23 h, RP-HPLC)
1 | Nc1ccn([C@@H]2O[C@H](CO)[C@@H](O)C2(F)F)c(=O)n1 [Gem, gemcitabine] | induced | 35 | did not inhibit | do not affect platelet aggregation | 80 | – | – | – | – | – | – | – | – | – | –
2 | CSCC[C@H](NC(=O)[C@H](Cc1ccccc1)NC(=O)CNC(=O)CNC(=O)[C@H](Cc1ccc(O)cc1)NC(=O)CCC(=O)OC[C@H]1O[C@@H](n2ccc(N)nc2=O)C(F)(F)[C@@H]1O)C(=O)O [OGF-Gem] | – | – | – | do not affect platelet aggregation | – | slight cytotoxicity effect | more pronounced cytotoxic effect | did not result in significant releases of LDH | not confirmed | confirmed | confirmed | gradual release of free Gem | ~39 | slight cytotoxicity effect | –
3 | CSCC[C@H](NC(=O)[C@H](Cc1ccccc1)NC(=O)CNC(=O)CNC(=O)[C@@H](N)Cc1ccc(O)cc1)C(=O)O [OGF, [Met^5]-enkephalin, reference compound] | – | – | – | do not affect platelet aggregation | – | – | – | did not result in significant releases of LDH | – | still present | – | – | – | – | lower
